Here are results for two compounds from patent publication US20260248794A1, “METHODS AND MATERIALS FOR PROMOTING BONE GROWTH” (Mayo Foundation for Medical Education and Research, priority 2022, published 2026).

“Also recorded” adds a separate entry of the source.

For one assay, the system named is H3K27me3 in MC3T3 cells. The assay can be described thus: Western blotting for H3K27me3 in MC3T3 cells treated with EED inhibitor. In kind it is cell-based, murine. The note with it: A-395 at 0.02-10 mM as printed, FIG. 5A. Here is the method:
MC3T3 sc4 murine calvarial osteoblasts were purchased from American Type Culture Collection and maintained in α-minimal essential medium without ascorbic acid (Gibco) containing 10% fetal bovine serum (Atlanta Biologicals), 100 units/mL penicillin, and 100 µg/mL streptomycin (Gibco).
MC3T3 cells (4,000 cells/cm^2) were plated in 6-well plates in maintenance medium. […] Cells were lysed in radioimmunoprecipitation buffer (150 mm NaCl, 50 mm Tris, pH 7.4, 1% sodium deoxycholate, 0.1% sodium dodecyl sulfate, 1% Triton X-100) supplemented with protease inhibitor mixture (Sigma) and phenylmethylsulfonyl fluoride (Sigma). Lysates were cleared by centrifugation. Protein concentrations were determined by the DC Protein Assay (Bio-Rad). Proteins were resolved by SDS-PAGE and transferred to polyvinylidene difluoride membranes. After blocking in 5% nonfat dry milk for 45 minutes at room temperature, primary antibodies were added overnight at 4° C., followed by secondary antibodies for 1 hour at room temperature. Proteins were visualized using an ECL Prime detection kit.
(In western blotting, separated proteins are transferred to a membrane and probed.)

In another assay the test system is OVX mice. The assay can be described thus: μCT analysis of OVX mice treated with MAK683. In kind it is in vivo, C57BL/6 female mice. As for the experimental part:
To assess whether EED inhibition could rescue low bone mass due to osteoporosis, ovariectomy (OVX) or sham (Sham) surgery on was performed 15-week-old C57BL/6 female mice with 6 animals per group. On the day of surgery, all mice were imaged using a PIXImus densitometer to measure bone density prior to OVX. Mice were allowed 7 days to recover. Mice in each group were randomized to EED inhibitor treatment or control. These groups were sham/vehicle (Sh−), sham/EED (SH+), OVX/vehicle (OV−), and OVX/EED (OV+). Again, each mouse was imaged to determine bone density after OVX prior to EED treatment. Mice were then injected with vehicle control or 20 mg/kg MAK683 SQ twice weekly for 3 weeks.

For assay [1], the system named is G610C mice. The assay can be described thus: μCT analysis of large cohort of G610C mice treated with MAK683. In kind it is in vivo. The note with it: for bone density (μCT) / trabecular structure: G610C mice; for bone density (μCT): 3 weeks, 9 mice per group; for trabecular structure: vs vehicle treated control; for bone quality parameters: OI mice. As for the experimental part:
One day prior to treatment 5-week-old male G610C mice were weighed to determine dosing. MAK683 was dissolved in DMSO for each treatment arm of 5, 10, 20, or 50 mg/kg for selected mice. The volume was adjusted to […] for injection using corn oil. Mice were injected subcutaneously twice weekly for 3 weeks. After 3 weeks, mice were euthanized, and bone was harvested.
To further examine if different doses of MAK683 improved bone formation in 01, SQ nine 5-week-old male G610C mice were injected with 50, 20, 10, or 5 mg/kg MAK683 twice a week for 3 weeks.

For assay [2], the system named is G610C mice. In words: μCT analysis of G610C mice treated with MAK683 for 3 weeks (three mice). In kind it is in vivo. The settings on record: for bone density / trabecular structure: G610C mice, vs vehicle treated control; for bone parameters (μCT) vs controls: male G610C mice, 3 weeks. As for the experimental part: To determine if MAK683 improved bone formation in OI, three 5-week-old male G610C mice were injected SQ with 50 mg/kg MAK683 twice a week for 3 weeks.

The mark [3] stands for this setting: 20 mg/kg, vs OVX vehicle treated control.

On to `CS(=O)(=O)c1ccc(-c2cnc(NCc3ccco3)n3cnnc23)cc1` [EED226, n-(2-furanylmethyl)-8-[4-(methylsulfonyl)phenyl]-1,2,4-triazolo[4,3-c]pyrimidin-5-amine], for which, in the assay on H3K27me3 in MC3T3 cells, the “H3K27me3 (western blotting)” value is given as “reduced H3K27me3 in a concentration-dependent manner”.
On to `Cc1ncccc1-c1cnc(NCc2c(F)ccc3c2CCO3)n2cnnc12` [MAK683, N-[(5-fluoro-2,3-dihydro-1-benzofuran-4-yl)methyl]-8-(2-methylpyridin-3-yl)-[1,2,4]triazolo[4,3-c]pyrimidin-5-amine], for which the “bone loss (μCT)” value in the assay on OVX mice (20 mg/kg SQ twice weekly, 3 weeks) is listed as “prevented bone loss”. Further, the bone density entry with OVX mice (setting [3]) was “significant intention”; in the assay with G610C mice [2] (20 mg/kg) it was “significant increase”; with G610C mice [2] (50 mg/kg), “significant increase”. For the same compound, the trabecular number entry with OVX mice (setting [3]) is listed as “significant intention”. Besides, the “bone density (μCT)” value with G610C mice [1] (5 mg/kg SQ twice a week) was “possible minor improvement”; with G610C mice [1] (10 mg/kg SQ twice a week, 10 mg/kg), “visual improvement; also recorded: significant increase”; with G610C mice [1] (20 mg/kg SQ twice a week, 20 mg/kg) it was “visual improvement; also recorded: significant increase”; in the assay with G610C mice [1] (50 mg/kg SQ twice a week), “possible minor improvement”. Further, the trabecular structure result with G610C mice [1] (10 mg/kg), in the assay on G610C mice [1] (20 mg/kg), in the assay on G610C mice [2] (20 mg/kg) and with G610C mice [2] (50 mg/kg) was “significant increase” each time. The “bone parameters (μCT) vs controls” value in the assay with G610C mice [1] (G610C mice, 50, 20, 10, or 5 mg/kg, FIG. 17B-M) is “improvement in many bone parameters”; with G610C mice [2] (20 mg/kg SQ twice a week), “improvement in essentially all bone parameters”; in the assay with G610C mice [2] (50 mg/kg SQ twice a week), “improvement in many bone parameters”. Moreover, the bone quality parameters entry in the assay on G610C mice [1] (5 mg/kg) and with G610C mice [1] (50 mg/kg) was “trend in increased” each time.
